From PubChem BioAssay AID540261 (Sanford-Burnham Center for Chemical Genomics, 2011)
Activity calls are given as the source filed them.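 The calls were made as follows: active = compounds whose average half-maximal inhibitory concentration on the enzyme falls below 100 micromolar; inactive = the rest.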

biological target: Alkaline phosphatase, tissue-nonspecific isozyme (Homo sapiens) (UniProt P05186); test: inhibition of tissue-nonspecific alkaline phosphatase – biochemical, set 2, CDP-Star luminescence, selectivity assay for human IAP inhibitor project, SAR follow-up (AID 540261); conditions: purified human TNAP, 30 min
Sequence (P05186 whole entry, looked up): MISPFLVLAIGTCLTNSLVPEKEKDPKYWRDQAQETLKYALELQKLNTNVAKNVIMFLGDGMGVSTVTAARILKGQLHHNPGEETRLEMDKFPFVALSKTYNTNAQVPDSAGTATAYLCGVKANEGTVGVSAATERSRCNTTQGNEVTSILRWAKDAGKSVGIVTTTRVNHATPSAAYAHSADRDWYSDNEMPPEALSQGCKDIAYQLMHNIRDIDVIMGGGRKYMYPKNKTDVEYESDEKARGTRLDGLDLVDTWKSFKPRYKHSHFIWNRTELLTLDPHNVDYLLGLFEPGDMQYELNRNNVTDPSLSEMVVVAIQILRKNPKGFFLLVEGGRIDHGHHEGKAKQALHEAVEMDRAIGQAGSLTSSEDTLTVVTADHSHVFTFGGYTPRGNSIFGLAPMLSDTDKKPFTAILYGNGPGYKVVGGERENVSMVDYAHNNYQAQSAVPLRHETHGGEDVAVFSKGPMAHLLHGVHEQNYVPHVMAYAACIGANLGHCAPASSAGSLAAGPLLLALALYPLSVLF

IC50, inactive:
O=C(CNS(=O)(=O)c1ccc2[nH]c(=O)oc2c1)Nc1ccc2c(c1)OCO2 > 100 µM
Cc1ccc(C)c(NC(=O)CCNS(=O)(=O)c2ccc3[nH]c(=O)oc3c2)c1 > 100 µM
N#Cc1ccc(CNC(=O)CCNS(=O)(=O)c2ccc3[nH]c(=O)oc3c2)cc1 > 100 µM
O=C(CNS(=O)(=O)c1ccc2[nH]c(=O)oc2c1)NCc1ccc2c(c1)OCO2 > 100 µM
COc1ccc(NC(=O)CNS(=O)(=O)c2ccc3[nH]c(=O)oc3c2)cc1OC > 100 µM
